Data reported in US20070093461A1, “Effect of Loteprednol etabonate on vascular dysfunction” (Bausch & Lomb Incorporated, priority 2005, published 2007).
“Also recorded” adds a separate entry of the source.

Legend:
Assay type in all cases: cell-based, human
sVCAM-1 = assay: ELISA for sVCAM-1 in supernatants of LE-treated HREC; conditions: HREC with or without LPS activation; LE 0, 10, 25 & 50 μM, 3 days; p≦0.05 (FIG. 2A)
Protocol: (§1) HREC were treated with LE (10, 25 and 50 μM) for 3 days. Supernatants were removed and microcentrifuge (Beckman Microfuge R) 1000 RPM for 10 min (4° C. after which they were stored at −70° C. until needed. ELISA kits (R&D systems) for human vascular endothelial growth factor (VEGF), soluble intracellular adhesion molecule (sICAM-1) and soluble vascular cell adhesion molecule (sVCAM-1) were used according to the manufacturer's instructions.

sICAM-1 = assay: ELISA for sICAM-1 in supernatants of LE-treated HREC; conditions: HREC with or without LPS activation; LE 0, 10, 25 & 50 μM, 3 days; p≦0.05 (FIG. 2B)
Protocol: as §1

occludin = assay: Western blot analysis of occludin in cell lysates; conditions: LE 0, 10 & 50 μM; daily administration for 3 days necessary to maintain effect
Protocol: Cells were treated with LE (0, 10 & 50 μM) for either 3 days or LE (0, 10 & 50 μM) was replenished everyday for 3 days. Cells were lysed and protein levels determined/adjusted (see above). SDS PAGE was performed on cell lysates and then separated proteins were transferred on to a nitrocellulose (NC) paper (Invitrogen). NC paper was blocked with 3% non-fat milk in phosphate buffered saline (PBS) for 1 hour and then probed with specific anti bodies to occludin (Rabbit anti-occludin polyclonal and monoclonal antibodies, Zymed); Goat anti-occludin (Santa Cruz). NC paper was then incubated with secondary horseradish peroxidase conjugated antibody for 1 hour and the bands were visualized using DAB (3,3′-diaminobenzidine) (Vector Laboratories) or cheminluminescence (SuperSignal West Dura, Pierce).

VEGF = assay: ELISA for VEGF in supernatants of LE-treated HREC; conditions: LE 0, 10, 25 & 50 μM, 3 days
Protocol: as §1

ZO-1 = assay: Immunohistochemistry of tight junction protein ZO-1 in VEGF-treated HREC; conditions: LE 10 & 50 μM for 1 hour, then VEGF 20 ng/ml for 1 hour, listed as LE
Protocol: Human retina endothelial cells were seeded onto an 8-well glass chamber and allowed to become 80-90% confluent. Cells were treated with or without LE for 1 hour and then treated with VEGF (20 ng/ml) for 1 hour. HREC were immediately fixed and stained with specific antibodies to occludin and zonula occluden-1 (Zymed). FITC-conjugated secondary antibodies (R&D Systems) were used to visualize tight junction distribution/integrity.

HREC = assay: Cellular toxicity in LE-treated HREC; conditions: highest concentration of LE tested (50 μM)

Structure (SMILES): CCOC(=O)O[C@]1(C(=O)OCCl)CC[C@H]2[C@@H]3CCC4=CC(=O)C=C[C@]4(C)[C@H]3[C@@H](O)C[C@@]21C [Loteprednol etabonate]
- expression of sVCAM-1 (sVCAM-1): significantly down regulated
- expression of sICAM-1 (sICAM-1): significantly down regulated
- total content of occludin (occludin): increased
- expression of VEGF (VEGF; HREC with LPS activation, p≦0.01 (FIG. 1A)): significantly down regulated
- expression of VEGF (VEGF; HREC without LPS activation, p≦0.01 (FIG. 1B)): significantly down regulated
- effect on VEGF-induced disruption/redistribution of ZO-1 (tight junction) (ZO-1): reversed the effect of VEGF tight junction disruption; also recorded: inhibited the effect of VEGF-induced disruption of ZO-1
- cellular toxicity (HREC): no apparent cellular toxicity
